Measurements published in EP0677293A1, “PHARMACEUTICAL USE OF TERPYRIDINE DERIVATIVE” (priority 1992, dated 1994).
Read-outs that look alike come from different tables or passages of the source.

Tests used:
[1] = test system: Astroglial cells derived from the mouse forebrain; assay: Synthesis-stimulating activity on NGF (NGF level in culture medium by enzyme immunoassay); assay type: cell-based; details: Mus musculus, 24 h; for fold induction at 2 µg/mL / fold induction at 50 µg/mL: read-out: Synthesis-Stimulating Activity on NGF
Experimental: The activity of accelerating secretion of NGF was evaluated by the following method.
Each compound shown in Table 1 was dissolved in dimethylsulfoxide (DMSO) to adjust the concentration in the range of 2 mg/ml to 10 mg/ml.
Astroglial cells derived from the mouse forebrain (cells that synthesize and secrete NGF)
Astroglial cells obtained from the mouse forebrain were cultured into 8 x 10⁵ cells/ml in Dulbecco's modified Eagle's medium obtained from Gibco, glucose-rich, containing 20% fetal calf serum, 100 units/ml of penicillin and 100 µg/ml of streptomycin. A 0.1 ml/well aliquot was inoculated on a 96-well plate obtained from Falcon and having an area of 0.32 cm² per well and cultured at 37°C in an atmosphere of 5% CO₂. The culture medium was removed 72 hours later and instead, a 0.1 ml/well aliquot of fresh Dulbecco's modified Eagle's medium containing 0.5% bovine albumin powders obtained from Armour, 100 units/ml of penicillin and 100 µg/ml of streptomycin was supplemented to the system followed by culturing at 37°C in 5% CO₂. The above medium containing the compound each having various concentrations was exchanged 72 hours later. For the purpose of comparison, the medium which contains only DMSO was also prepared (control).
The synthesis-stimulating activity on NGF by the compound of the present invention is shown in terms of a ratio when the NGF level in the control containing only DMSO was made 1.0.

[2] = test system: Cerebral cortical neuronal cells from an 18-day-old rat embryo; assay: Test on neurotrophic activity (living cells counted by fluorescein diacetate fluorescence, with or without hypoxic load); assay type: cell-based
Experimental: The neurotrophic activity was determined by the following method. Each compound was dissolved in DMSO to adjust the concentration in the range of 2 mg/ml to 10 mg/ml. Cerebral cortical neuronal cells from an 18-day-old rat embryo […] After 24 hours of incubation, the culture medium was removed and a 0.5 ml/well aliquot of a serum-free fresh DF medium containing the respective compounds having various concentrations, 5 µg/ml of transferrin, 5 µg/ml of insulin and 20 pmoles/ml of progesterone was supplemented to the system. For the purpose of comparison, the medium containing only DMSO was added was also prepared. At this stage, the two same plates were used. After 72 hours of incubation in various medium, hypoxia was loaded on one plate by reducing the concentration of oxygen to the minimum concentration of 1% using a N₂-O₂-CO₂ incubator (manufactured by Tabai, Model BNP-100) and culturing for 4 hours under the conditions. Another plate was cultured in an atmosphere of 5% CO₂ and 95% air, without hypoxic load. After the incubation was continued for further 48 hours, living cells were counted. The culture medium was removed and fluorescein diacetate (FDA) reagent was reacted. After washing with phosphate buffer, pH 7.4, the fluorescent intensity (E x 485/Em 530) was measured by CytoFlour^TM 2300, manufactured by Millipore.

[3] = no hypoxic load, ratio of fluorescent intensity to DMSO control = 1.0, read-out: Neurotrophic Activity No Hypoxic Load
[4] = 4 h, hypoxic load (1% oxygen, 4 hours), ratio of fluorescent intensity to DMSO control = 1.0, read-out: Neurotrophic Activity Hypoxic Load
[5] = 2 µg/ml, ratio to DMSO control = 1.0, 24 hours
[6] = 50 µg/ml, ratio to DMSO control = 1.0, 24 hours

Compound	fold induction at 20 µg/mL ([1]; ratio to DMSO control = 1.0)	fold induction at 100 µg/mL ([1]; ratio to DMSO control = 1.0)	viability at 2 µg/mL [2, 3] [%]	viability at 10 µg/mL [2, 3] [%]	viability at 2 µg/mL [2, 4] [%]	viability at 10 µg/mL [2, 4] [%]	fold induction at 2 µg/mL [1, 5]	fold induction at 10 µg/mL ([1]; ratio to DMSO control = 1.0)	fold induction at 50 µg/mL [1, 6]	also measured
CCCCCCCCCCCCCCCCCc1cc[n+](Cc2ccc(-c3cc(-c4ccccn4)nc(-c4ccccn4)c3)cc2)cc1 [Compound 27, 4-Heptadecyl-1-[4-(2,2':6',2''-terpyridin-4'-yl)phenylmethyl]pyridinium bromide]	1	1.2	200	190	150	200	–	–	–	–
c1ccc(-c2cc(-c3ccc(Cn4cccc4)cc3)cc(-c3ccccn3)n2)nc1 [Compound 22, 4'-[4-(1-pyrrorylmethyl)phenyl]-2,2':6',2''-terpyridine]	–	–	120	170	100	180	1.7	1.1	–	–
CC(C)c1ccc(-c2cc(-c3ccccn3)nc(-c3ccccn3)c2)cc1 [Compound 8, 4'-(4-Isopropylphenyl)-2,2':6',2''-terpyridine]	–	–	–	–	–	–	1.7	3.2	2.4	–
O=C(O)c1ccc(-c2cc(-c3ccccn3)nc(-c3ccccn3)c2)cc1 [Compound 19, 4-(2,2':6',2''-Terpyridin-4'-yl)benzoic acid]	–	–	–	–	–	–	2.4	2.4	3.6	–
Oc1ccccc1-c1cc(-c2ccccn2)nc(-c2ccccn2)c1 [Compound 12, 2-(2,2':6',2''-Terpyridin-4'-yl)phenol]	3.7	3	–	–	–	–	–	–	–	–
COc1ccc(-c2cc(-c3ccccn3)nc(-c3ccccn3)c2)cc1 [Compound 13, 4'-(4-Methoxyphenyl)-2,2':6',2''-terpyridine]	1.7	1.8	180	–	70	–	–	–	–	–
O=[N+]([O-])c1cccc(-c2cc(-c3ccccn3)nc(-c3ccccn3)c2)c1 [Compound 17, 4'-(3-Nitrophenyl)-2,2':6',2''-terpyridine]	1	2.8	–	–	–	–	–	–	–	–
C[N+](C)(C)Cc1ccc(-c2cc(-c3ccccn3)nc(-c3ccccn3)c2)cc1 [Compound 23, N,N,N-Trimethyl-N-[4-(2,2':6',2''-terpyridin-4'-yl)phenylmethyl]ammonium bromide]	–	1.3	250	130	300	160	–	3.2	–	fold induction at 30 µg/mL ([1]; ratio to DMSO control = 1.0): 5.6
CCCCCCCCCc1cc[n+](Cc2ccc(-c3cc(-c4ccccn4)nc(-c4ccccn4)c3)cc2)cc1 [Compound 26, 4-Nonyl-1-[4-(2,2':6',2''-terpyridin-4'-yl)phenylmethyl]pyridinium bromide]	3	3	160	140	140	130	–	–	–	–
CCCCCCCCCCCC[N+](C)(C)Cc1ccc(-c2cc(-c3ccccn3)nc(-c3ccccn3)c2)cc1 [Compound 24, N-Dodecyl-N,N-dimethyl-N-[4-(2,2':6',2''-terpyridin-4'-yl)phenylmethyl]ammonium bromide]	–	–	200	–	190	–	–	–	–	fold induction at 2 µg/mL [1]: 2.1; fold induction at 50 µg/mL [1]: 1
BrCc1ccc(-c2cc(-c3ccccn3)nc(-c3ccccn3)c2)cc1 [Compound 21, 4'-(4-Bromomethylphenyl)-2,2':6',2''-terpyridine]	2.7	5.2	140	–	200	–	–	–	–	–
Nc1cccc(-c2cc(-c3ccccn3)nc(-c3ccccn3)c2)c1 [Compound 18, 4'-(3-Aminophenyl)-2,2':6',2''-terpyridine]	–	4.6	110	–	140	–	–	5.7	–	fold induction at 30 µg/mL ([1]; ratio to DMSO control = 1.0): 2
c1ccc(-c2cccc(-c3ccccn3)n2)nc1 [Compound 1]	–	–	270	320	140	220	–	–	–	fold induction at 1 µg/mL ([1]; 1 µg/ml, ratio to DMSO control = 1.0): 2.3; fold induction at 5 µg/mL ([1]; ratio to DMSO control = 1.0): 3.5
CCc1ccc(-c2cc(-c3ccccn3)nc(-c3ccccn3)c2)cc1 [Compound 7, 4'-(4-Ethylphenyl)-2,2':6',2''-terpyridine]	–	–	–	–	–	–	2.9	1	1.2	–
Cc1cccc(-c2cc(-c3ccccn3)nc(-c3ccccn3)c2)c1 [Compound 4, 4'-(3-Methylphenyl)-2,2':6',2''-terpyridine]	–	–	170	–	180	–	1.8	1.3	1.2	–
OCCOc1ccc(-c2cc(-c3ccccn3)nc(-c3ccccn3)c2)cc1 [Compound 15, 2-[4-(2,2':6',2''-Terpyridin-4'-yl)phenoxy]ethanol]	1.7	4.2	–	–	–	–	–	–	–	–
c1ccc(-c2cc(-c3ccccn3)nc(-c3ccccn3)c2)cc1 [Compound 2, 4'-Phenyl-2,2':6',2''-terpyridine]	2.6	2.2	180	130	170	50	–	–	–	–
Clc1ccc(-c2cc(-c3ccccn3)nc(-c3ccccn3)c2)cc1 [Compound 11, 4'-(4-Chlorophenyl)-2,2':6',2''-terpyridine]	–	–	170	130	160	140	–	–	2.2	fold induction at 5 µg/mL ([1]; ratio to DMSO control = 1.0): 4.7; fold induction at 17 µg/mL ([1]; 17 µg/ml, ratio to DMSO control = 1.0): 3.4
c1cc[n+](Cc2ccc(-c3cc(-c4ccccn4)nc(-c4ccccn4)c3)cc2)cc1 [Compound 25, 1-[4-(2,2':6',2''-Terpyridin-4'-yl)phenylmethyl]pyridinium bromide]	–	–	140	–	110	–	1.2	1.1	2.9	–
Cc1ccccc1-c1cc(-c2ccccn2)nc(-c2ccccn2)c1 [Compound 3, 4'-(2-Methylphenyl)-2,2':6',2''-terpyridine]	–	–	240	150	280	140	1.5	2.9	–	–
CCCCCCCCC(CCCCCCCC)c1cc[n+](Cc2ccc(-c3cc(-c4ccccn4)nc(-c4ccccn4)c3)cc2)cc1 [Compound 28, 4-(1-Octylnonyl)-1-[4-(2,2':6',2''-terpyridin-4'-yl)phenylmethyl]pyridinium bromide]	3.6	2.5	260	130	310	380	–	–	–	–
CCOc1ccc(-c2cc(-c3ccccn3)nc(-c3ccccn3)c2)cc1 [Compound 14, 4'-(4-Ethoxyphenyl)-2,2':6',2''-terpyridine]	–	–	–	–	–	–	2.1	4.8	2.9	–
